Test results as given in paper PMC10020809, “A Phase Ib/II Study of WNT974 + Encorafenib + Cetuximab in Patients With BRAF ^V600E-Mutant KRAS Wild-Type Metastatic Colorectal Cancer” (The Oncologist, 2023).
Marks after values point to notes of the source that are not given here.

Assays:
[1] = tested on: patients with BRAF V600E-mutant mCRC with RNF43 mutations or RSPO fusions; assay: Safety: adverse events (CTCAE v4.03), phase Ib; settings: human, in vivo
Experimental: Patients who developed hypercalcemia (any grade) were treated with bisphosphonates per institutional standards.
The primary endpoints of the phase Ib study were the incidence of DLTs and exposure to WNT974 and encorafenib as measured by PK parameters. A DLT was defined as an AE or abnormal laboratory value assessed as unrelated to disease, disease progression, intercurrent illness, or concomitant medications that occurred within the first 28 days of treatment with WNT974 + encorafenib + cetuximab. The secondary endpoints for this study included the objective response rate (ORR; RECIST 1.1), disease control rate (DCR), and frequency and severity of AEs (Common Terminology Criteria for Adverse Events v4.03).
Tumor assessments were performed at baseline (screening) and every 6 weeks after starting study treatment until disease progression, initiation of subsequent antineoplastic therapy, or death, whichever occurred first. End-of-treatment tumor assessment was conducted within 14 days of receiving the last dose or treatment discontinuation. Safety was assessed throughout the study and included physical examinations, vital signs, weight, performance status evaluation, laboratory evaluations, dermatologic evaluations, ophthalmological examinations, bone loss assessments, cardiac assessments, and documentation of all non-serious and serious AEs (SAEs). […]

[2] = Plasma pharmacokinetics, noncompartmental; assay type: in vivo, human; settings: for t 1/2 / AUC(0-t) / AUC / Cmax / half-life: mean (SD); for AUC(0-t) / AUC / Cmax / half-life / Tmax: human, plasma, oral
Experimental: To assess plasma concentrations of WNT974, its active metabolite LHA333, and encorafenib, serial blood samples were collected on days 1 and 15 of cycle 1, and pre-dose blood samples were collected on days 2, 8, 16, and 22 of cycle 1, and on day 1 of cycles 2, 3, and 4. PK parameters were determined using noncompartmental methods. The PK analysis set included all patients with at least one available valid PK concentration measurement who received at least one dose of study drug.

[3] = tested on: patients with advanced solid tumors; set-up: method as in PMID 33941878; settings: cited from earlier work
CRC preclinical models = tested on: CRC preclinical models; set-up: method as in PMID 31233627, PMID 28695896, PMID 23847203; settings: in vitro and in vivo; cited from earlier work
[4] = tested on: patients with advanced solid tumors; HER2-negative breast cancer or pancreatic cancer; settings: in vivo; cited from earlier work
[5] = COMBO5, day 15 of cycle 1, plasma
[6] = COMBO7.5, day 15 of cycle 1, plasma
[7] = COMBO10, day 15 of cycle 1, plasma
[8] = 200 mg, All cohorts, encorafenib 200 mg once daily, day 15 of cycle 1, plasma

Cc1cc(-c2ncc(CC(=O)Nc3ccc(-c4cnccn4)cn3)cc2C)ccn1 [WNT974]
Reported serious AEs of bone fracture [1]: 6 | t 1/2 [2, 5]: 4.74 (2.17) h | t 1/2 [2, 6]: 5.37 (0.697) h | Dose dependence of mean AUC ([2]; WNT974 5, 7.5, 10 mg, day 15 of cycle 1): increased in a dose-proportional manner | AUC(0-t) ([2]; COMBO5 (5 mg WNT974 once daily + encorafenib + cetuximab), day 15 of cycle 1, plasma): 220 ng·h/mL | AUC [2, 5]: 227 ng·h/mL | Cmax [2, 5]: 51 ng/mL | half-life [2, 5]: 282 min | Tmax ([2]; COMBO5, day 15 of cycle 1, plasma, median (range)): 1 h | AUC(0-t) ([2]; COMBO7.5 (7.5 mg WNT974 once daily + encorafenib + cetuximab), day 15 of cycle 1, plasma): 384 ng·h/mL | AUC [2, 6]: 384 ng·h/mL | Cmax [2, 6]: 93.4 ng/mL | half-life [2, 6]: 324 min | Tmax ([2]; COMBO7.5, day 15 of cycle 1, plasma, median (range)): 1.02 h | AUC(0-t) ([2]; COMBO10 (10 mg WNT974 once daily + encorafenib + cetuximab), day 15 of cycle 1, plasma): 460 ng·h/mL | AUC [2, 7]: 542 ng·h/mL | Cmax [2, 7]: 42.9 ng/mL | half-life [2, 7]: 660 min | Tmax ([2]; COMBO10, day 15 of cycle 1, plasma, median (range)): 4 h | AE frequency: decreased appetite ([3]; across all doses): 45.7% | AE frequency: dysgeusia ([3]; across all doses): 50% | AE frequency: fatigue ([3]; across all doses): 31.9% | AE frequency: nausea ([3]; across all doses): 33.0% | AE frequency: vomiting ([3]; across all doses): 30.9% | Bone-related toxicities considered related to the study treatment [3]: 5 | Number of bone-related toxicities [3]: 7 | Patients who experienced bone-related toxicities [3]: 6 patients | Anti-tumor activity (CRC preclinical models): demonstrated anti-tumor activity

COC(=O)N[C@@H](C)CNc1nccc(-c2cn(C(C)C)nc2-c2cc(Cl)cc(NS(C)(=O)=O)c2F)n1 [Encorafenib, encorafenib]
t 1/2 ([2]; All cohorts, encorafenib 200 mg once daily, day 15 of cycle 1, plasma): 4.29 (2.42)^b h | T max ([2]; All cohorts, encorafenib 200 mg once daily, day 15 of cycle 1, plasma, median (range)): 1.95 (0.48-7.17) h | Mean AUC and maximum plasma drug concentration across treatment combinations ([2]; day 15 of cycle 1): generally comparable across all treatment combinations | AUC(0-t) ([2]; 200 mg, All cohorts (N = 17), encorafenib 200 mg once daily, day 15 of cycle 1, plasma): 13700 ng·h/mL | AUC [2, 8]: 13800 ng·h/mL | Cmax [2, 8]: 2840 ng/mL | half-life [2, 8]: 258 min | Tmax ([2]; 200 mg, All cohorts, encorafenib 200 mg once daily, day 15 of cycle 1, plasma, median (range)): ~2 h

B1: vantictumab: an anti-Frizzled antibody, given with chemotherapy (antibody, chains of the INN, looked up, V domains shown)
VH: EVQLVESGGGLVQPGGSLRLSCAASGFTFSHYTLSWVRQAPGKGLEWVSVISGDGSYTYYADSVKGRFTISSDNSKNTLYLQMNSLRAEDTAVYYCARNFIKYVFANWGQGTLVTVSS
VL: DIELTQPPSVSVAPGQTARISCSGDNIGSFYVHWYQQKPGQAPVLVIYDKSNRPSGIPERFSGSNSGNTATLTISGTQAEDEADYYCQSYANTLSLVFGGGTKLTVL
Tolerability / bone safety in phase I trials [4]: closed early due to high rates of bone fracture
